Laboratory results as given in US12642780B2, “Methods and compositions to treat and prevent viral infections and acute respiratory distress syndrome” (priority 2020, dated 2026).

Tests used:
Assay type in all cases: cell-based, mouse
NLRP3 inflammasome = NLRP3 inflammasome activation in LPS-primed BMDM; conditions: for restoration of Casp1 activation and IL-1β secretion: metformin treated and ATP-stimulated macrophages, DMNQ 20 μM 16 hrs, MitoParaquat 5 μM 1 hr
BMDM [1] = test: Mitochondrial function in BMDM (TMRM, MitoSOX, cellular ATP); conditions: for mtROS: metformin treated and ATP-stimulated macrophages, DMNQ 20 μM 16 hrs, MitoParaquat 5 μM 1 hr
mtDNA = mtDNA synthesis and cytosolic Ox-mtDNA in BMDM; conditions: for restoration of cytoplasmic Ox-mtDNA or mtDNA synthesis: metformin treated macrophages, DMNQ 20 μM 16 hrs, MitoParaquat 5 μM 1 hr
Protocol: To image mtDNA synthesis, BMDM were stimulated with LPS ([…]) for 4 hrs in the presence of 10 μM EdU. Cells were then washed twice with sterile PBS and fixed in 4% PFA for 15 min followed by permeabilization with 0.02% Triton X-100 for 10 min. EdU staining was performed using a Click-iT EdU Microplate Assay Kit (Thermo Fisher Scientific). In brief, BMDMs were postfixed in EdU fixative for 5 min, and equal volumes of the EdU reaction cocktail, which was prepared immediately before use, were added to each chamber and left overnight. Primary antibody against the mitochondrial marker Atp5b was included in the EdU reaction cocktail. The next day, the BMDM were washed three times with PBS followed by incubation with secondary Alexa antibodies from Life Technologies or Jackson Immuno Research Laboratories. DAPI was used for nuclear counterstaining.
Total DNA was isolated using Allprep DNA/RNA Mini Kit (catalogue 80204, Qiagen) according to manufacturer's instructions. mtDNA was quantified by qPCR using primers specific for the mitochondrial D-loop region, cytochrome c oxidase (COX) or a specific region of mtDNA that is not inserted into nuclear DNA (non-NUMT) (Zhong et al., 2018). Nuclear DNA encoding Teri, 18S ribosomal RNA and B2m was used for normalization.
Cellular fractionation was performed using Mitochondrial Isolation kit (89874, ThermoScientific) according to manufacturer's instructions. Cytosolic mtDNA was analyzed as described (Nakahira et al., 2011). For the measurement of Ox-mtDNA, mtDNA was first purified using Allprep DNA/RNA mini kit (Qiagen) from the cytosolic fraction of BMDM as described above. The 8-OH-dG content of the mtDNA was then quantified using an 8-OHdG quantification kit (ab201734), per manufacturer's instructions.

BMDM [2] = test: Cytokine secretion by LPS-stimulated BMDM (ELISA)
Excerpt: Paired antibodies (capture and detection) and standard recombinant mouse IL-1β (R&D Systems), and TNF and IL-6 (eBioscience) were used to determine mouse cytokine concentrations according to manufacturer's instructions.

BMDM [3] = test: Q-PCR quantitation of cytokine mRNAs in LPS-stimulated BMDM; design: Il6 mRNA induction: dose or concentration left out as unconfirmed; conditions: BMDM pretreated with SB202190 or SP600125 for 16 h, LPS
Protocol: RNA was extracted using AllPrep DNA/RNA Mini kit, and cDNA was synthesized using SuperScript™ VILO™ cDNA Synthesis Kit. mRNA expression was determined by QPCR in a CFX96 thermal cycler (Biorad) as described (Zhong et al., 2016). Data are presented in arbitrary units and calculated by the 2^(−ΔΔCT) method. Primer sequences were obtained from the NIH qPrimerDepot (http://mouseprimerdepot.nci.nih.gov) and provided by Integrated DNA technologies.

With `Cc1nc(-c2nc(-c3ccc(OC(F)(F)F)cc3)no2)nn1Cc1cccc(N2CCC(S(C)(=O)=O)CC2)c1` [IACS-010759] the “IL-1β production and Casp1 and GSMDM cleavage” value (NLRP3 inflammasome; LPS-primed macrophages with NLRP3 activators, IACS-010759 20 μM 16 hrs) was “inhibited”, the “response to nigericin compared with other activators” value (NLRP3 inflammasome; LPS-primed macrophages, IACS-010759 20 μM 16 hrs) was “not as strongly inhibited” and the ROS production (BMDM [1]; BMDM, IACS-010759 20 μM 16 hrs, MitoSOX) was “enhanced”. For the same molecule, the mtDNA synthesis (mtDNA; LPS-primed BMDM, IACS-010759 16 hrs) was “inhibited”, the IL-6 secretion (BMDM [2]; BMDM, IACS-010759 20 μM 16 hrs) was “modest inhibition” and the TNF secretion (BMDM [2]; BMDM, IACS-010759 20 μM 16 hrs) was “no effect”.
For `COC1=C(OC)C(=O)c2ccccc2C1=O` [DMNQ, 2,3-dimethoxy-1,4-naphtoquinone], the “restoration of Casp1 activation and IL-1β secretion” value (NLRP3 inflammasome) was “neither one restored”, the mtROS (BMDM [1]) was “increased” and the “restoration of cytoplasmic Ox-mtDNA or mtDNA synthesis” value (mtDNA) was “neither parameter was restored”.
`C[n+]1ccc(-c2cc[n+](CCCCCCCCCC[P+](c3ccccc3)(c3ccccc3)c3ccccc3)cc2)cc1.[I-].[I-].[I-]` [mitoParaquat] was tested, and the “restoration of Casp1 activation and IL-1β secretion” value (NLRP3 inflammasome) was “neither one restored”, the mtROS (BMDM [1]) was “increased” and the “restoration of cytoplasmic Ox-mtDNA or mtDNA synthesis” value (mtDNA) was “neither parameter was restored”.
In the case of `Oc1ccc(-c2nc(-c3ccncc3)c(-c3ccc(F)cc3)[nH]2)cc1` [SB202190], the “Il6 mRNA induction” value (BMDM [3]) is reported as “blocked” and the IL-6 secretion (BMDM [2]; BMDM pretreated with SB202190 or SP600125 for 16 h, LPS) is reported as “blocked”.
